Source: PubChem BioAssay AID1963835 (Molecular Pharmacology Branch, DTP, NCI, 2024)

System: 699152-130-R-J1-PDC complex spheroid viability
Experiment: Anticancer human tumor 699152-130-R-J1-PDC patient-derived pancreatic carcinoma cell line growth inhibition [POLQ]
Conditions: for IC50: curve of first compound; for viability, T/C: stronger effect = lower value; active = viability on the fitted dose curve at most 10% of control; inactive = the rest
Summary of the method: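 Complex spheroid viability model combining PDC tumour cells with endothelial (HUVEC) and MSC stromal cells. Novobiocin, ART-558 or RP6685 were tested singly and in combination with standard and investigational anticancer drugs. Each was titrated in half-log steps from near clinical Cmax, or from 10 microM where Cmax was unknown.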
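Also: spheroids exposed to agents for 7 days before viability reading.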
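For viability, T/C in this document: percent of DMSO vehicle control viability so 100% = vehicle and 0% = no viable signal.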

C=CC(=O)N1CCN(c2nc(=O)n(-c3c(C)ccnc3C(C)C)c3nc(-c4c(O)cccc4F)c(F)cc23)C(C)C1 (configuration not stated) + COC1C(OC(N)=O)C(O)C(Oc2ccc3c(O)c(NC(=O)c4ccc(O)c(CC=C(C)C)c4)c(=O)oc3c2C)OC1(C)C
> 10 µM: IC50 (second compound 0.0316 µM) | IC50 (second compound 0.1 µM) | IC50 (second compound 0.316 µM) | IC50 (second compound 1 µM) | IC50 (second compound 3.16 µM) | IC50 (second compound 10 µM)
inactive: viability, T/C (second compound 0.0316 µM, first compound 0.0316 µM) 110% | viability, T/C (second compound 0.0316 µM, first compound 0.1 µM) 98% | viability, T/C (second compound 0.0316 µM, first compound 0.316 µM) 97.7% | viability, T/C (second compound 0.0316 µM, first compound 1 µM) 102% | viability, T/C (second compound 0.0316 µM, first compound 3.16 µM) 116% | viability, T/C (second compound 0.0316 µM, first compound 10 µM) 100% | viability, T/C (second compound 0.1 µM, first compound 0.0316 µM) 104% | viability, T/C (second compound 0.1 µM, first compound 0.1 µM) 96.3% | viability, T/C (second compound 0.1 µM, first compound 0.316 µM) 107% | viability, T/C (second compound 0.1 µM, first compound 1 µM) 118% | viability, T/C (second compound 0.1 µM, first compound 3.16 µM) 126% | viability, T/C (second compound 0.1 µM, first compound 10 µM) 114% | viability, T/C (second compound 0.316 µM, first compound 0.0316 µM) 123% | viability, T/C (second compound 0.316 µM, first compound 0.1 µM) 108% | viability, T/C (second compound 0.316 µM, first compound 0.316 µM) 109% | viability, T/C (second compound 0.316 µM, first compound 1 µM) 103% | viability, T/C (second compound 0.316 µM, first compound 3.16 µM) 122% | viability, T/C (second compound 0.316 µM, first compound 10 µM) 105% | viability, T/C (second compound 1 µM, first compound 0.0316 µM) 102% | viability, T/C (second compound 1 µM, first compound 0.1 µM) 108% | viability, T/C (second compound 1 µM, first compound 0.316 µM) 101% | viability, T/C (second compound 1 µM, first compound 1 µM) 108% | viability, T/C (second compound 1 µM, first compound 3.16 µM) 129% | viability, T/C (second compound 1 µM, first compound 10 µM) 104% | viability, T/C (second compound 3.16 µM, first compound 0.0316 µM) 106% | viability, T/C (second compound 3.16 µM, first compound 0.1 µM) 92.8% | viability, T/C (second compound 3.16 µM, first compound 0.316 µM) 99.8% | viability, T/C (second compound 3.16 µM, first compound 1 µM) 105% | viability, T/C (second compound 3.16 µM, first compound 3.16 µM) 125% | viability, T/C (second compound 3.16 µM, first compound 10 µM) 114% | viability, T/C (second compound 10 µM, first compound 0.0316 µM) 116% | viability, T/C (second compound 10 µM, first compound 0.1 µM) 94.7% | viability, T/C (second compound 10 µM, first compound 0.316 µM) 103% | viability, T/C (second compound 10 µM, first compound 1 µM) 110% | viability, T/C (second compound 10 µM, first compound 3.16 µM) 117% | viability, T/C (second compound 10 µM, first compound 10 µM) 106%
